The text below walks through data of patent US8592422B2, “Bicyclic triazole and pyrazole lactams as allosteric modulators of mGluR5 receptors” (Vanderbilt University, priority 2010, dated 2013).

In the assay the target is T1, human mGluR5a receptor (Homo sapiens, UniProt P41594).
T1 construct: cDNA subcloned into pcDNA3.1(-)
Nature of the assay: Cell-based functional Ca2+ mobilization assay (FDSS), potentiation of glutamate EC20 response. To be noted: for pEC50 / EC50: HEK cells transfected with human mGluR5 (H10H or H12H), in presence of EC20 glutamate; for EC50: read-out: EC50; for Emax (%) / Emax: maximum % effect in concentration-response curve, as percent of response to maximally effective glutamate. How it is done:
Human embryonic kidney (HEK) cells transfected with rat mGluR5 were plated in clear bottom assay plates for assay in a Functional Drug Screening System (FDSS). In the alternative assay, HEK cells transfected with human mGluR5 were plated for assay in the FDSS. In some cases the HEK cells transfected with human mGluR5 were the H10H cell line. Alternatively, the HEK cells transfected with human mGluR5 were the H12H cell line. […] The cells were loaded with a Ca^2+-sensitive fluorescent dye (e.g., Fluo-4), and the plates were washed and placed in the FDSS instrument. After establishment of a fluorescence baseline for twelve seconds, the compounds of the present invention were added to the cells, and the response in cells was measured. Alternatively, in various further aspects, after establishment of a fluorescence baseline for about three seconds, the compounds of the present invention were added to the cells, and the response in cells was measured. Five minutes later, an mGluR5 agonist (e.g., glutamate, 3,5-dihydroxyphenylglycine, or quisqualate) was added to the cells, and the response of the cells was measured.
The above described assay operated in two modes. In the first mode, a range of concentrations of the present compounds were added to cells, followed by a single fixed concentration of agonist. If a compound acted as a potentiator, an EC50 value for potentiation and a maximum extent of potentiation by the compound at this concentration of agonist was determined by non-linear curve fitting. In the second mode, several fixed concentrations of the present compounds were added to various wells on a plate, followed by a range of concentrations of agonist for each concentration of present compound; the EC50 values for the agonist at each concentration of compound were determined by non-linear curve fitting. A decrease in the EC50 value of the agonist with increasing concentrations of the present compounds (a leftward shift of the agonist concentration-response curve) is an indication of the degree of mGluR5 potentiation at a given concentration of the present compound. An increase in the EC50 value of the agonist with increasing concentrations of the present compounds (a rightward shift of the agonist concentration-response curve) is an indication of the degree of mGluR5 antagonism at a given concentration of the present compound. The second mode also indicates whether the present compounds also affect the maximum response to mGluR5 to agonists.
The mGluR5 activity was determined using the metabotropic glutamate receptor activity assays in human embryonic kidney cells as described herein, wherein the human embryonic kidney cells were transfected with human mGluR5. The compounds in Table 1 were synthesized with methods identical or analogous to those shown herein. The requisite starting materials were commercially available, described in the literature, or readily synthesized by one skilled in the art of organic synthesis. The compound number given in Table I corresponds to the compound number in Table II and the structure given therein.
Human mGluR5a cDNA in pCMV6-XL6 mammalian expression plasmid was purchased from OriGene Technologies, Inc. (catalogue number SC326357) and subcloned into pcDNA3.1(−). Human embryonic kidney (HEK) 293A cells were then transfected with human mGluR5a pcDNA3.1(−) using LipofectAmine-2000 (Invitrogen) and monoclones were selected and tested for functional response using a Ca^2+ mobilization assay. Monoclones were named for the species (“H” for human) plus the location on the plate (e.g. “10H”).
HEK cells transfected with the human mGluR5a receptor (H10H or H12H cell line) were plated at 15,000 cells/well in clear-bottomed poly-D-lysine-coated assay plates (BD Falcon) in glutamate-glutamine-free growth medium and incubated overnight at 37° C. and 5% CO2.

T1 sequence (P41594 21-1180 isoform P41594-2 limits assumed): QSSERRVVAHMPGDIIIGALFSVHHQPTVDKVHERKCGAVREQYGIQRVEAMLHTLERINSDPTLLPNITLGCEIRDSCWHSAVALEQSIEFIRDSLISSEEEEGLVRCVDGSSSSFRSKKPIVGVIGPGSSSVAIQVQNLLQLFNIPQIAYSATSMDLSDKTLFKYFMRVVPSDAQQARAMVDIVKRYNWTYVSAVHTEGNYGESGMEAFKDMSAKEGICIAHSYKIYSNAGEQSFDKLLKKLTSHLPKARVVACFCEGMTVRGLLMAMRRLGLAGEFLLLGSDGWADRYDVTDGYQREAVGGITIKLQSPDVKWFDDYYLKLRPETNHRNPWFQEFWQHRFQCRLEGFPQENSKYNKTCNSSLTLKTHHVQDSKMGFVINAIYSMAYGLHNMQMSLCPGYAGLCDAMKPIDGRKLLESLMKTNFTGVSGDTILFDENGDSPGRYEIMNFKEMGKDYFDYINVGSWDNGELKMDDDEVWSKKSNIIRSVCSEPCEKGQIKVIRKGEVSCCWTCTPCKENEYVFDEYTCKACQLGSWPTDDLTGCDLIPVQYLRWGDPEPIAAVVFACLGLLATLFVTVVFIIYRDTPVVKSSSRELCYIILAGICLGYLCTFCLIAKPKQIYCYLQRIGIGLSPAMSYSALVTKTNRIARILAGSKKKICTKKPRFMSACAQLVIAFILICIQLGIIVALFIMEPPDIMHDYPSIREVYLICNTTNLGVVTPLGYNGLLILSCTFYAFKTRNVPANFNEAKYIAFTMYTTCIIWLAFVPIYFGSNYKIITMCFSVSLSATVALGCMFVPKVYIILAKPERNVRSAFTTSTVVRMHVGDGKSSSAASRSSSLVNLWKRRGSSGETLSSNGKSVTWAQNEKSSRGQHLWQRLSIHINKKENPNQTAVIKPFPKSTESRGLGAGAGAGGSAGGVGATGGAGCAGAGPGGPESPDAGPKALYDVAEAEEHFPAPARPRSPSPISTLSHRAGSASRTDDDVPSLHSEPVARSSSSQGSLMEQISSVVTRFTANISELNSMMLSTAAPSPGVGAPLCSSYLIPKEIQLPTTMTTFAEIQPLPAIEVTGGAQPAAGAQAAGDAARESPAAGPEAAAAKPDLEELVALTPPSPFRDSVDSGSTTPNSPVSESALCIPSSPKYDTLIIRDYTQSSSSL

Turning to `Cc1ccc(F)c(N2CCn3nc(COc4ccccc4)cc3C2=O)n1` [Example 88], the pEC50 is 6.75, the EC50 came to 178 nM and the “Emax (%)” value is recorded as 72%.
With `COc1ccc(N2CCn3nc(COc4ccccc4)cc3C2=O)nn1` [Example 89], the pEC50 is listed as less than 5.00, the EC50 is more than 10000 nM and the “Emax (%)” value was 75%.
With `COc1nc(N2CCn3nc(COc4ccccc4)cc3C2=O)ncc1F` [Example 91], the pEC50 is given as 7.19, the EC50 was 65 nM and the “Emax (%)” value is given as 71%.
With `Cc1cncc(N2CCn3nc(COc4ccccc4)cc3C2=O)n1` [Example 92], the pEC50 came out at 6.51, the EC50 stood at 309 nM and the “Emax (%)” value was 71%.
`Cc1cnnc(N2CCn3nc(COc4ccccc4)cc3C2=O)c1` [Example 93]: the negative logarithm of the EC50 (pEC50) was less than 4.52, the EC50 was more than 30200 nM and the “Emax (%)” value stood at 29%.
Regarding `Cc1nccc(N2CCn3nc(COc4ccccc4)cc3C2=O)n1` [Example 94], the pEC50 amounted to 6.29, the EC50 came to 513 nM and the “Emax (%)” value came out at 65%.
For the compound `N#Cc1cccc(N2CCn3nc(COc4ccccc4)cc3C2=O)n1` [Example 95], the pEC50 was 6.82, the EC50 came out at 150 nM and the “Emax (%)” value is 54%.
The matching figures for `COc1nc(N2CCn3nc(COc4ccccc4)cc3C2=O)ncc1C` [Example 97]: 7.01, 98 nM and 68%.
In the same order, the values of `COc1nc(C)cc(N2CCn3nc(COc4ccccc4)cc3C2=O)n1` [Example 98] are 6.13, 741 nM and 63%.
`COc1cnc(N2CCn3nc(COc4ccccc4)cc3C2=O)cn1` [Example 101]: the pEC50 was 6.53, the EC50 is 295 nM and the “Emax (%)” value came out at 78%.
Consider `COc1nccnc1N1CCn2nc(COc3ccccc3)cc2C1=O` [Example 103], for which the pEC50 came to 7.03, the EC50 worked out at 93 nM and the “Emax (%)” value is given as 72%.
`COc1ncc(C)c(N2CCn3nc(COc4ccccc4)cc3C2=O)n1` [Example 106]: the EC50 amounted to 389 nM and the Emax was determined as 53%.
With `COc1ccc(C)c(N2CCn3nc(COc4ccccc4)cc3C2=O)n1` [Example 109], the pEC50 is on record as 7.13, the EC50 is 74 nM and the “Emax (%)” value is 63%.
The matching figures for `COc1nccc(N2CCn3nc(COc4ccccc4)cc3C2=O)n1` [Example 110]: 6.70, 200 nM and 68%.
As for `COc1cncc(N2CCn3nc(COc4ccccc4)cc3C2=O)n1` [Example 112], the negative-log EC50 (pEC50) was 6.98, the EC50 worked out at 105 nM and the “Emax (%)” value stood at 69%.
Take `COc1ncncc1N1CCn2nc(COc3ccccc3)cc2C1=O` [Example 113]: the EC50 was determined as 724 nM and the Emax turned out to be 57%.
`COc1ccnc(N2CCn3nc(COc4ccccc4)cc3C2=O)c1` [Example 115]: the pEC50 came out at 5.96, the EC50 was found to be 1100 nM and the “Emax (%)” value amounted to 66%.
The matching figures for `COc1cncnc1N1CCn2nc(COc3ccccc3)cc2C1=O` [Example 118]: 5.69, 2000 nM and 67%.
For the compound `COc1cnc(C)nc1N1CCn2nc(COc3ccccc3)cc2C1=O` [Example 119], the EC50 is 2300 nM and the Emax was determined as 72%.
As for `COc1cc(N2CCn3nc(COc4ccccc4)cc3C2=O)nc(OC)n1` [Example 122], the pEC50 is listed as 6.91, the EC50 was found to be 120 nM and the “Emax (%)” value is on record as 61%.
Regarding `COc1cnnc(N2CCn3nc(COc4ccccc4)cc3C2=O)c1` [Example 125], the EC50 is more than 10000 nM and the Emax was determined as 48%.
With `COc1cc(OC)nc(N2CCn3nc(COc4ccccc4)cc3C2=O)n1` [Example 127], the pEC50 is listed as 6.68, the EC50 stood at 210 nM and the “Emax (%)” value is reported as 63%.
As for `CC1Cn2nc(COc3ccccc3)cc2C(=O)N1CC1CC1` (stereo not shown) [Example 136], the pEC50 is given as 6.13, the EC50 stood at 741 nM and the “Emax (%)” value turned out to be 56%.
For `CC1Cn2nc(COc3ccccc3)cc2C(=O)N1c1ccc(F)cn1` (stereo not shown) [Example 139], the pEC50 stood at 6.05, the EC50 worked out at 891 nM and the “Emax (%)” value is given as 43%.
Turning to `CC1Cn2nc(COc3ccccc3)cc2C(=O)N1c1ccc(F)cc1` (stereo not shown) [Example 142], the pEC50 is recorded as 7.19, the EC50 worked out at 65 nM and the “Emax (%)” value was determined as 68%.
Take `COc1nccc(N2C(=O)c3cc(COc4ccccc4)nn3CC2C)n1` (stereo not shown) [Example 145]: the pEC50 is on record as 5.85, the EC50 was determined as 1410 nM and the “Emax (%)” value is given as 59%.
In the same order, the values of `COc1nc(N2C(=O)c3cc(COc4ccccc4)nn3CC2C)ncc1F` (stereo not shown) [Example 147] are 6.27, 537 nM and 72%.
With `Cc1cccc(N2C(=O)c3cc(COc4ccccc4)nn3CC2C)c1` (stereo not shown) [Example 153], the pEC50 is recorded as 7.22, the EC50 came out at 60 nM and the “Emax (%)” value is 71%.
With `CC1Cn2nc(COc3ccccc3)cc2C(=O)N1c1ccc(F)cc1` (stereo not shown) [Example 157], the pEC50 came to 6.24, the EC50 was 575 nM and the “Emax (%)” value stood at 63%.
As to `O=C1c2cc(COc3cccnc3)nn2CCN1c1ccc(F)cc1` [Example 158], the EC50 stood at 3090 nM and the Emax worked out at 69%.
Take `O=C1c2cc(COc3ccccn3)nn2CCN1c1ccc(F)cc1` [Example 159]: the pEC50 stood at 6.32, the EC50 stood at 479 nM and the “Emax (%)” value was 69%.
On to `O=C1c2cc(COc3cncc(F)c3)nn2CCN1c1ccc(F)cc1` [Example 161], for which the EC50 worked out at 1320 nM and the Emax is 68%.
Take `O=C1c2cc(COc3ccccn3)nn2CCN1CC1CC1` [Example 162]: the EC50 was determined as 2510 nM and the maximal effect (Emax) was found to be 47%.
`O=C1c2cc(COc3ccncc3)nn2CCN1CC1CC1` [Example 163]: the EC50 was found to be 2240 nM and the Emax stood at 63%.
Take `N#Cc1cccc(OCc2cc3n(n2)CCN(CC2CC2)C3=O)c1` [Example 164]: the pEC50 was less than 4.52, the EC50 was more than 30200 nM and the “Emax (%)” value was 28%.
As to `O=C1c2cc(COc3ccc(F)cc3)nn2CCN1c1ccc(F)cc1` [Example 165], the pEC50 amounted to 6.98, the EC50 turned out to be 105 nM and the “Emax (%)” value stood at 71%.
The matching figures for `O=C1c2cc(COc3ccc(F)cc3)nn2CCN1CC1CC1` [Example 167]: 6.58, 263 nM and 64%.
On to `Cc1cccc(OCc2cc3n(n2)CCN(CC2CC2)C3=O)c1` [Example 168], for which the pEC50 stood at 5.18, the EC50 was 6610 nM and the “Emax (%)” value was 30%.
